Source: US20150352177A1, “Method Of Treating An Ocular Disease And Compositions Effective For Treating An Ocular Disease” (Howard University, priority 2012, published 2015)

test system: severe endophthalmitis; assay: Combination therapy treatment of a subject with severe endophthalmitis (single case); type: in vivo, human; settings: topical Ceftazidime, Vancomycin and Prednisolone eye drops every two hours, without efflux transporter inhibitor, over two days, vision dropped to no light perception
Method: A uniocular subject was diagnosed with severe endophthalmitis in their only functioning eye. […] The subject was treated with an aggressive treatment regimen of topical antibiotics Ceftazidime eye drops, Vancomycin eye drops and steroid Prednisolone eye drops every two hours.
Cyclosporin A (sold as […]® from Allergan, Inc.) was added to the treatment regimen and was administered prior to administering the antibiotic and steroid eye drops.
The Ceftriaxone was added to the regimen to increase the aggressiveness of the therapy with the goal of preventing or eliminating any traces of infection in the retina, which can result in irreversible blindness.

Row | Compound | improvement under initial treatment regimen
1 | CC(C)(O/N=C(\C(=O)N[C@@H]1C(=O)N2C(C(=O)[O-])=C(C[n+]3ccccc3)CS[C@H]12)c1csc(N)n1)C(=O)O [Ceftazidime] | no improvement
2 | C[C@]12C=CC(=O)C=C1CC[C@@H]1[C@@H]2[C@@H](O)C[C@@]2(C)[C@H]1CC[C@]2(O)C(=O)CO [Prednisolone] | no improvement
3 | CN[C@H](CC(C)C)C(=O)N[C@H]1C(=O)N[C@@H](CC(N)=O)C(=O)N[C@H]2C(=O)N[C@H]3C(=O)N[C@H](C(=O)N[C@H](C(=O)O)c4cc(O)cc(O)c4-c4cc3ccc4O)[C@H](O)c3ccc(c(Cl)c3)Oc3cc2cc(c3O[C@@H]2O[C@H](CO)[C@@H](O)[C@H](O)[C@H]2O[C@H]2C[C@](C)(N)[C@H](O)[C@H](C)O2)Oc2ccc(cc2Cl)[C@H]1O [Vancomycin] | no improvement
